Read-outs that look alike come from different tables or passages of the source.
Tests used:
[1] = target: T1, Recombinant human HDAC3/SMRT heterodimer (Homo sapiens, UniProt O15379); assay: Human HDAC enzyme inhibitor Fluor-de-Lys assay, HDAC3/SMRT; format: biochemical
T1 construct: FLAG (C); made in house

KARN cells (Jurkat 2C4) = assay: cells; format: cell-based
In short: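 Jurkat 2C4 (KARN) cells dosed with test compounds up to 40 μM final, 0.4% DMSO, overnight at 5% CO2; luciferase read by Steady-Glo luminescence after 10 min at room temperature. DMSO set as 0% and 2 μM SAHA as 100% induction; 4-parameter fit of percent activation.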

[2] = Homo sapiens, Jurkat, read-out: Karn EC50 (nM) 0.1% NHS, 0.1% normal human serum
[3] = Homo sapiens, Jurkat, read-out: Karn EC50 (nM) 5% NHS, 5% normal human serum
[4] = read-out: Karn EC50 (nM) 0.1% NHS, 0.1% normal human serum
[5] = read-out: Karn EC50 (nM) 5% NHS, 5% normal human serum

T1 sequence (O15379 whole entry): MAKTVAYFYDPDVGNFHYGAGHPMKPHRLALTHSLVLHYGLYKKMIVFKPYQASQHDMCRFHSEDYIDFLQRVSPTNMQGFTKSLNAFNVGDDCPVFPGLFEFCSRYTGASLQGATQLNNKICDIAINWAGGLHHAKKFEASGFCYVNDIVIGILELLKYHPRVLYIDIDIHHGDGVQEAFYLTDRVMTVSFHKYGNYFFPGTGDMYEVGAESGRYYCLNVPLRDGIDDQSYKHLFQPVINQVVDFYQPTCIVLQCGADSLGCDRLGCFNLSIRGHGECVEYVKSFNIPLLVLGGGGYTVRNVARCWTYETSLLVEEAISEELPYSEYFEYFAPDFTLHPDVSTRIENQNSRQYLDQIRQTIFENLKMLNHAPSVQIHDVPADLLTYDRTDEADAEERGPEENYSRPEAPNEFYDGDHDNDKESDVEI
T1 sequence (Q9Y618 1-899 partner limits assumed): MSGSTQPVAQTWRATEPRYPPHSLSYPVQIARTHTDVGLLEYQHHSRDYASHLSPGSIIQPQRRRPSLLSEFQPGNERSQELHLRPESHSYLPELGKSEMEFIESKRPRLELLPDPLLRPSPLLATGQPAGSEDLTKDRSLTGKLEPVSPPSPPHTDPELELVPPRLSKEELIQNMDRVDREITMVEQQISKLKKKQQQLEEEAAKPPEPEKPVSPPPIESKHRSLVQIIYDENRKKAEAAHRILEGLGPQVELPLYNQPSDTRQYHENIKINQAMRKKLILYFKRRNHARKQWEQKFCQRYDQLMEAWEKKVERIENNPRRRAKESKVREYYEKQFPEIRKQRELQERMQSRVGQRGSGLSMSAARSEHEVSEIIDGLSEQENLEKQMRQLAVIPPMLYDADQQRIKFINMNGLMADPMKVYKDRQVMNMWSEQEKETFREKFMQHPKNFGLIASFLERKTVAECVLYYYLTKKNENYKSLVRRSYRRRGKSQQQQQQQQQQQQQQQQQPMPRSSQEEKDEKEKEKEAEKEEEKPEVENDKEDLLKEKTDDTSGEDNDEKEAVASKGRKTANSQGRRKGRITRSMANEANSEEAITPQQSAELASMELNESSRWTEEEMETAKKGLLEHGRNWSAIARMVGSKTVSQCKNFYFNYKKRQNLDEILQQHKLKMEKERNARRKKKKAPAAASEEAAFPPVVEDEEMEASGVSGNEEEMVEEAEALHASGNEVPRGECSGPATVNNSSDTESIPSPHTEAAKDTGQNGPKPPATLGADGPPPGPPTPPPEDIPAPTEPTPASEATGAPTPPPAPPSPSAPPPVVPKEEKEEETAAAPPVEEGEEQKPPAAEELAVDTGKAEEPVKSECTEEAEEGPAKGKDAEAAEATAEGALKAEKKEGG

| Structure (SMILES) | IC50 [1] [µM] | EC50 (KARN cells (Jurkat 2C4); [2]) [nM] | EC50 (KARN cells (Jurkat 2C4); [3]) [nM] | EC50 (KARN cells (Jurkat 2C4); [4]) [nM] | EC50 (KARN cells (Jurkat 2C4); [5]) [nM] |
| --- | --- | --- | --- | --- | --- |
| CCN1CCC2(CC1)C[C@@H]2C(=O)N[C@@H](CCCCCC(=O)CC1CC1)c1ncc(-c2cc3ccc(C)nc3cc2OC)[nH]1 [Compound 165] | 0.00214 | 140 | 385 | – | – |
| CCC(=O)CCCCC[C@H](NC(=O)C1(CC(C)C)CC2(CN(C)C2)C1)c1ncc(-c2ccc3nc(C)ccc3c2)[nH]1 [Compound 157] | 0.00401 | 451 | 557 | – | – |
| COc1cc2nc(C)ccc2cc1-c1cnc([C@H](CCCCCC(=O)CC2CCC2)NC(=O)[C@H]2CC23CCN(C)CC3)o1 [Compound 185] | 0.026 | 1330 | 2960 | – | – |
| CCC(=O)CCCCC[C@H](NC(=O)[C@H]1CC12CCN(C)CC2)c1ncc(-c2ccc3c(c2)C2CCC3C2)[nH]1 (some centres unmarked) [Compound 74] | 0.00374 | 351 | 376 | – | – |
| CCC(=O)CCCCC[C@H](NC(=O)[C@H]1CC12CCN(C)CC2)c1ncc(-c2ccc3c(ccc(=O)n3C)c2)o1 [Compound 109] | 0.00298 | 706 | 579 | – | – |
| CCC(=O)CCCCC[C@H](NC(=O)C1=NOC2(CCN(CC)CC2)C1)c1ncc(-c2cc3ccc(C)nc3cc2OC)[nH]1 [Compound 207] | 0.00036 | 55 | 58 | – | – |
| CCC(=O)CCCCC[C@H](NC(=O)C1CC12CCN(C)C(C)(C)C2)c1ncc(-c2ccc3nc(C)ccc3c2)[nH]1 (single isomer, unassigned) [Compound 131] | 0.00057 | – | – | 126 | 128 |
| CCC(=O)CCCCC[C@H](NC(=O)C1CC2(C1)CN(C)C2)c1ncc(-c2ccc3nn(C)cc3c2)[nH]1 [Compound 147] | < 0.0015 | 3580 | 2850 | – | – |
| CCC(=O)CCCCC[C@H](NC(=O)[C@H]1CC12CCN(C)CC2)c1ncc(-c2ccc3nc(C4CC4)sc3c2)[nH]1 [Compound 146] | 0.00064 | 122 | 112 | – | – |
| CCC(=O)CCCCC[C@H](NC(=O)[C@H]1CC12CCN(C)CC2)c1ncc(-c2ccc3cnc(OC)cc3c2)[nH]1 [Compound 113] | 0.00142 | 58 | 107 | – | – |
| CN1CCC2(CC1)C[C@@H]2C(=O)N[C@@H](CCCCCC(=O)CC(F)(F)F)c1ncc(-c2ccc(F)cc2)[nH]1 [Compound 68] | 0.00859 | > 40000 | – | – | – |
| CCC(=O)CCCCC[C@H](NC(=O)[C@H]1CC12CCN(C)CC2)c1ncc(-c2ccc3nc(CC)sc3c2)[nH]1 [Compound 149] | 0.00062 | 92 | 73 | – | – |
| CCC(=O)CCCCC[C@H](NC(=O)C1CN(C)C1)c1ncc(-c2ccc3c(c2)C2CCC3C2)[nH]1 (stereo partly drawn) [Compound 73, 1-methyl-N-{(1S)-7-oxo-1-[5-(1,2,3,4-tetrahydro-1,4-methanonaphthalen-6-yl)-1H-imidazol-2-yl]nonyl}azetidine-3-carboxamide] | 0.00957 | 740 | 1450 | – | – |
| CCC(=O)CCCCC[C@H](N)c1ncc(-c2cc3ccc(C)nc3cc2OC)[nH]1 [Compound 209, (S)-9-amino-9-(5-(7-methoxy-2-methylquinolin-6-yl)-1H-imidazol-2-yl)nonan-3-one] | 0.0216 | 1440 | 4950 | – | – |
| CCC(=O)CCCCC[C@H](NC(=O)C1=NOC2(CCN(C(C)C)CC2)C1)c1ncc(-c2cc3ccccc3nc2OC)[nH]1 [Compound 106, N-{(1S)-1-[5-(2-methoxyquinolin-3-yl)-1H-imidazol-2-yl]-7-oxononyl}-8-(1-methylethyl)-1-oxa-2,8-diazaspiro[4.5]dec-2-ene-3-carboxamide] | < 0.0015 | 143 | 1070 | – | – |
| CCC(=O)CCCCC[C@H](NC(=O)C1=NOC2(CCN(C(C)C)CC2)C1)c1ncc(-c2ccc3nc(C4CC4)ccc3c2)o1 [Compound 136] | 0.00641 | 2500 | – | – | – |
| CCC(=O)CCCCC[C@H](NC(=O)[C@H]1CC12CCN(C)CC2)c1ncc(-c2ccc(-c3ccc(C4CC4)nc3)cc2)o1 [Compound 143] | 0.032 | 1240 | 1330 | – | – |
| CCC(=O)CCCCC[C@H](NC(=O)C1CC12CC1CCC(C2)N1C)c1ncc(-c2ccc3ncccc3c2)[nH]1 (single isomer, unassigned) [Compound 166] | 0.00032 | 469 | 591 | – | – |
| CCC(=O)CCCCC[C@H](NC(=O)[C@H]1CC12CCN(C(C)C)CC2)c1ncc(-c2ccc3nc(C4CC4)ccc3c2)o1 [Compound 116] | 0.00388 | 630 | 617 | – | – |
| CCC(=O)CCCCC[C@H](NC(=O)[C@H]1CC12CCN(C)CC2)c1ncc(-c2ccc(C3CC3)nc2)[nH]1 [Compound 139] | 0.00239 | 532 | 552 | – | – |

| Structure (SMILES) | IC50 [1] [µM] | EC50 (KARN cells (Jurkat 2C4); [2]) [nM] | EC50 (KARN cells (Jurkat 2C4); [3]) [nM] | EC50 (KARN cells (Jurkat 2C4); [4]) [nM] | EC50 (KARN cells (Jurkat 2C4); [5]) [nM] |
| --- | --- | --- | --- | --- | --- |
| CCC(=O)CCCCC[C@H](NC(=O)[C@H]1CC12CCN(CC)CC2)c1nc(-c2cc3ccc(C)nc3cc2OC)cn1COC(=O)C(C)(C)C [Compound 215, {2-[(1S)-1-({[(1S)-6-ethyl-6-azaspiro[2.5]oct-1-yl]carbonyl}amino)-7-oxononyl]-4-(7-methoxy-2-methylquinolin-6-yl)-1H-imidazol-1-yl}methyl 2,2-dimethylpropanoate] | 0.00115 | 93 | 93 | – | – |
| CCC(=O)CCCCC[C@H](NC(=O)C1(C)CC12CCN(C(C)C)CC2)c1ncc(-c2ccc3nc(C)ccc3c2)[nH]1 (single isomer, unassigned) [Compound 152, (1S or 1R)-1-methyl-6-(1-methylethyl)-N-{(1S)-1-[5-(2-methylquinolin-6-yl)-1H-imidazol-2-yl]-7-oxononyl}-6-azaspiro[2.5]octane-1-carboxamide] | 0.00085 | 128 | 96 | – | – |
| CCC(=O)CCCCC[C@H](NC(=O)[C@H]1CC12CCN(C)CC2)c1ncc(-c2cc(OC)ncc2F)o1 [Compound 220] | 0.0335 | 3810 | 3930 | – | – |
| C=CCN1CCC2(CC1)C[C@@H]2C(=O)N[C@@H](CCCCCC(=O)CC)c1ncc(-c2ccc3c(c2)C2CCC3N2CC=C)[nH]1 (stereo partly drawn) [Compound 179, (1S)—N-{(1S)-7-oxo-1-[5-(9-prop-2-en-1-yl-1,2,3,4-tetrahydro-1,4-epiminonaphthalen-6-yl)-1H-imidazol-2-yl]nonyl}-6-prop-2-en-1-yl-6-azaspiro[2.5]octane-1-carboxamide] | 0.0175 | 2410 | 2390 | – | – |
| CCC(=O)CCCCC[C@H](NC(=O)CN1CCC2(CC1)CC2)c1ncc(-c2ccc3nn(C)cc3c2)[nH]1 [Compound 155] | 0.00205 | 354 | 398 | – | – |
| CCN1CCC2(CC1)C[C@@H]2C(=O)N[C@@H](CCCCCC(=O)CC1CCC1)c1ncc(-c2cc3ccc(C)nc3cc2OC)o1 [Compound 184] | 0.0184 | 1630 | 2760 | – | – |
| CCC(=O)CCCCC[C@H](NC(=O)[C@H]1CC12CCN(CC)CC2)c1ncc(-c2ccc(-c3cnc(C4CC4)nc3)cc2)o1 [Compound 161] | 0.033 | 1370 | 1460 | – | – |
| CCC(=O)CCCCC[C@H](NC(=O)[C@H]1CC12CCN(C)CC2)c1ncc(-c2ccc3oc(=O)ccc3c2)[nH]1 [Compound 138] | 0.00162 | 210 | 223 | – | – |
| CCC(=O)CCCCC[C@H](NC(=O)[C@H]1CC12CCN(C)CC2)c1ncc(-c2cc3ccc(=O)n(C)c3cc2OC)o1 [Compound 198] | 0.00065 | 147 | 176 | – | – |
| CCC(=O)CCCCC[C@H](NC(=O)C1CC12CCN(C)C(C)(C)C2)c1ncc(-c2ccc3nc(C)ccc3c2)[nH]1 (single isomer, unassigned) [Compound 132] | < 0.0015 | – | – | 169 | 281 |
| CCC(=O)CCCCC[C@H](NC(=O)[C@H]1CC12CCN(C)CC2)c1nc(F)c(-c2cc3ccccc3nc2OC)[nH]1 [Compound 75] | 0.00259 | 275 | 801 | – | – |
| CCC(=O)CCCCC[C@H](NC(=O)[C@H]1CC12CCN(C)CC2)c1nnc(-c2cc3ccc(C)nc3cc2OC)o1 [Compound 191] | 0.00168 | 366 | 343 | – | – |
| CCC(=O)CCCCC[C@H](NC(=O)[C@H]1CC12CCN(CC)CC2)c1ncc(-c2ccc3c(=O)n(CC)ccc3c2)o1 [Compound 162] | 0.00284 | 257 | 305 | – | – |
| CCC(=O)CCCCC[C@H](NC(=O)[C@H]1CC12CCN(CC)CC2)c1ncc(-c2cc3nn(C)cc3cc2OC)o1 [Compound 189] | 0.00234 | 282 | 300 | – | – |
| CCC(=O)CCCCC[C@H](NC(=O)[C@H]1CC12CCN(CC)CC2)c1ncc(-c2ccc3nc(C4CC4)ccc3c2)[nH]1 [Compound 101] | < 0.0015 | 41 | 36 | – | – |
| CCC(=O)CCCCC[C@H](NC(=O)[C@H]1CC12CCN(CC1CC1)CC2)c1ncc(-c2cc3ccc(=O)n(C)c3cc2OC)o1 [Compound 199] | – | 62 | 83 | – | – |
| CCC(=O)CCCCC[C@H](NC(=O)[C@H]1CC12CCN(C)CC2)c1ncc(-c2cc3ccccc3nc2OC)o1 [Compound 125] | – | 154 | 256 | – | – |
| CCC(=O)CCCCC[C@H](NC(=O)[C@H]1CC12CCN(C)CC2)c1ncc(-c2cnc3cccnc3c2)[nH]1 [Compound 67] | – | 6480 | 6350 | – | – |
| CCC(=O)CCCCC[C@H](NC(=O)C1=NOC2(CCN(C)CC2)C1)c1ncc(-c2cc3ccccc3nc2OC)[nH]1 [Compound 105] | – | 126 | 942 | – | – |
| CCC(=O)CCCCC[C@H](NC(=O)[C@H]1CC12CCN(C)CC2)c1ncc(-c2cc3ccccc3nc2OC)o1 [Compound 77] | – | – | – | 194 | 311 |
